Reference: paper PMC2806265, “Divergence of allosteric effects of rapacuronium on binding and function of muscarinic receptors” (BMC Pharmacology, 2009)
Marks after values point to notes of the source that are not given here.

Assays:
M1 muscarinic receptor [1] = molecular target: T1, M1 muscarinic receptor (Homo sapiens, UniProt P11229); type: binding; conditions: + 100 μM rapacuronium
T1 construct: host or cells: CHO cells, stably transfected; membrane preparation
T1 sequence (P11229 1-460): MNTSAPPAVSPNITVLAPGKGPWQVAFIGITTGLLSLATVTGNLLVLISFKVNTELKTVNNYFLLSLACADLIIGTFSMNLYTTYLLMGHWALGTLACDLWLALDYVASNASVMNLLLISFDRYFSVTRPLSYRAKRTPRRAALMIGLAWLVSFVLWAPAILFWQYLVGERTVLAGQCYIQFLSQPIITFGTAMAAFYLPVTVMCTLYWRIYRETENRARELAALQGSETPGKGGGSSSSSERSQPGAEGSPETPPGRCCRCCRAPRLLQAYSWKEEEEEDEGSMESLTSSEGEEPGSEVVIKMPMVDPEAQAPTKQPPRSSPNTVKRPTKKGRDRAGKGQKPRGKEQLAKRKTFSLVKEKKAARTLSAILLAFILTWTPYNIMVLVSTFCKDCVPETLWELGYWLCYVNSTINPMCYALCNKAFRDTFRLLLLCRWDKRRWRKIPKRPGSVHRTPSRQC
From the text: (§1) y, radioligand binding at time x normalized to binding at time 0; koff1 and koff2, dissociation rate constants; f2, fraction of binding site with dissociation rate constant koff2. When both Eq. 7a and 7b were fitted to data the better fit was chosen based on sum of squares F-test and runs test.

M3 muscarinic receptor = molecular target: T2, M3 muscarinic receptor (Homo sapiens, UniProt P20309); type: binding
T2 construct: host or cells: CHO cells, stably transfected; membranes
T2 sequence (P20309 whole entry): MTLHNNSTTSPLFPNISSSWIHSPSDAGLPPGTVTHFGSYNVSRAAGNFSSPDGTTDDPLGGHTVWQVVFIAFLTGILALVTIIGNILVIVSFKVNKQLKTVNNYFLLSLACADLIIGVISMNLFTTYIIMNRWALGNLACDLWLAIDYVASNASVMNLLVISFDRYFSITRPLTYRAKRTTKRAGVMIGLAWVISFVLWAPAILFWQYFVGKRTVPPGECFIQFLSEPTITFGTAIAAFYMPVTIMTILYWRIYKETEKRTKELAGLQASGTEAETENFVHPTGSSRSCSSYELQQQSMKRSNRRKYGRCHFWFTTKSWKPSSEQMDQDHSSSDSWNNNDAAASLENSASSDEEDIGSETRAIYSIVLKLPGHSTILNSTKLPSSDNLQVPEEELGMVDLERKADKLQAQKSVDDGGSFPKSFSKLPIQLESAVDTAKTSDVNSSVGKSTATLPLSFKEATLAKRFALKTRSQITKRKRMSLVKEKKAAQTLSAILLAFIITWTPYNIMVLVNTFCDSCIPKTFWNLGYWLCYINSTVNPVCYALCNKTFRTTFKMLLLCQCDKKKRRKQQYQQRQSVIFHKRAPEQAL
From the text: as §1

M1 muscarinic receptor [2] = molecular target: T1, M1 muscarinic receptor; test: [35S]GTPγS binding to membranes; type: biochemical; conditions: for EMAX of ACh on [^35S]GTPγS binding: fold of basal
Protocol: For determination of [^35S]GTPγS binding to G-proteins in membranes a final concentration of 200 pM (M1, M3 and M5 receptors) or 500 pM (M2 and M4 receptors) of [^35S]GTPγS was used. Incubation medium was supplemented with 5 μM (M1, M3 and M5 receptors) or 50 μM (M2 and M4 receptors) GDP. […] Incubation with [^35S]GTPγS was carried out for 20 min and free ligand was removed by filtration as described above. Filtration and washing with ice-cold water lasted for 9 s (wash-aspirate button time).

M2 muscarinic receptor [3] = molecular target: T3, M2 muscarinic receptor (Homo sapiens, UniProt P08172); test: [3H]NMS saturation binding
T3 sequence (P08172 1-466): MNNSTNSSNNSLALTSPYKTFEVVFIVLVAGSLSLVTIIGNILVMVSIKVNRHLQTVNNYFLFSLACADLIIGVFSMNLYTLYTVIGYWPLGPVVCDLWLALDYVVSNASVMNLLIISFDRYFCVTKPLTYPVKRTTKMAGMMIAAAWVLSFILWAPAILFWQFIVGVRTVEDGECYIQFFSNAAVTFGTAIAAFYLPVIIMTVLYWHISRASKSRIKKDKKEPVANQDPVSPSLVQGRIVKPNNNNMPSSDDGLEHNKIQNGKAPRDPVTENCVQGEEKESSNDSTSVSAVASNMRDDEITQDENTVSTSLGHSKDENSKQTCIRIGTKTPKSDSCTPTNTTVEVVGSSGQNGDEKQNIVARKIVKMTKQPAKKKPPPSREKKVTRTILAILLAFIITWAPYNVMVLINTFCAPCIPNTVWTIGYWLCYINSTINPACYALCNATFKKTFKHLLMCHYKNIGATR

M4 muscarinic receptor = molecular target: T4, M4 muscarinic receptor (Homo sapiens, UniProt P08173); test: [3H]ACh saturation binding; parameters: host or cells: CHO cells, stably transfected; membranes
T4 sequence (P08173 1-479): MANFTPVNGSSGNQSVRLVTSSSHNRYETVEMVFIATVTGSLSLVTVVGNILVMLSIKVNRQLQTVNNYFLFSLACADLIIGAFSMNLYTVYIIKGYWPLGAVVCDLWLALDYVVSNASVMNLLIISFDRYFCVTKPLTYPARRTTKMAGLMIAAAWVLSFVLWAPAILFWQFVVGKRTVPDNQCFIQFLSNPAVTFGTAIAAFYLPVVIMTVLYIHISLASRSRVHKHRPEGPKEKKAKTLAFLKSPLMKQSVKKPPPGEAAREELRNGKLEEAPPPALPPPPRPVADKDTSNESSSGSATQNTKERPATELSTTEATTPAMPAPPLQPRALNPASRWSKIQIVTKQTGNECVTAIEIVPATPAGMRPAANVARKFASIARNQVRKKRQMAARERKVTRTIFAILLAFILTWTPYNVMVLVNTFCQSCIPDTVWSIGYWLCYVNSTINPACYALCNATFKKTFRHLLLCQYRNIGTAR
From the text: (§2) BMAX, maximum binding capacity; KD, equilibrium dissociation constant.

M5 muscarinic receptor = molecular target: T5, M5 muscarinic receptor (Homo sapiens, UniProt P08912); test: [3H]ACh saturation binding; parameters: host or cells: CHO cells, stably transfected; membranes
T5 sequence (P08912 1-532): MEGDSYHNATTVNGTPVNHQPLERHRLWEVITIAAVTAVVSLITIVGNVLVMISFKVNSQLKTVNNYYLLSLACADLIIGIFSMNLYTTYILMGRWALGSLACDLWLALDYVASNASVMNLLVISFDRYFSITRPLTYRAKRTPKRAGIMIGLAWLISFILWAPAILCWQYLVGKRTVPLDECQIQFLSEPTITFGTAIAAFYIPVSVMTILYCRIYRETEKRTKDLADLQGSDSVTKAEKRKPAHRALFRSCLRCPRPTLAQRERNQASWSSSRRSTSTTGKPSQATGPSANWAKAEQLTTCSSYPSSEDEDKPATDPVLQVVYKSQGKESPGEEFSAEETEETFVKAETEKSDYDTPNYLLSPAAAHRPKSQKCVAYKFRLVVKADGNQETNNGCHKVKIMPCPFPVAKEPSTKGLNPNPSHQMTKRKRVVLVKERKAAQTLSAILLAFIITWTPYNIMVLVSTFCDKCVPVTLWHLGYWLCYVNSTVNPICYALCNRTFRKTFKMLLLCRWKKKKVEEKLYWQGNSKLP
From the text: as §2

M2 muscarinic receptor [4] = molecular target: T3, M2 muscarinic receptor; test: Effect of rapacuronium on 1 nM [3H]NMS binding; parameters: host or cells: CHO cells, stably transfected; membrane preparation
From the text: (§3) Cooperativity factor greater than 1 denotes negative cooperativity and less than 1 positive cooperativity. Due to its log-normal error distribution factors of cooperativity are expressed as negative logarithms (pα) through the manuscript so negative values denotes negative cooperativity and positive value denotes positive cooperativity.

M2 muscarinic receptor [5] = molecular target: T3, M2 muscarinic receptor; test: Effect of rapacuronium on high-affinity 20 nM [3H]ACh binding; parameters: host or cells: CHO cells, stably transfected; membrane preparation
From the text: as §3

[6] = M2, negative value = negative cooperativity
[7] = read-out: pKA of rapacuronium (converted)

For `C=CC[N+]1([C@H]2C[C@H]3[C@@H]4CC[C@H]5C[C@H](OC(C)=O)[C@@H](N6CCCCC6)C[C@]5(C)[C@H]4CC[C@]3(C)[C@H]2OC(=O)CC)CCCCC1` [rapacuronium], the “f2, fraction of sites with faster dissociation” value (M1 muscarinic receptor [1]) was 14 ± 3%, the “koff1 of [^3H]NMS dissociation” value (M1 muscarinic receptor [1]) was 0.014 ± 0.001* min^-1 and the “koff2 of [^3H]NMS dissociation” value (M1 muscarinic receptor [1]) was 0.00567 ± 0.00083 s⁻¹. The “decrease in rate of [^3H]NMS dissociation” value (M3 muscarinic receptor; 100 μM rapacuronium) was 40%, the “f2, fraction of sites with faster dissociation” value (M3 muscarinic receptor; + 100 μM rapacuronium) was 20 ± 4% and the “koff1 of [^3H]NMS dissociation” value (M3 muscarinic receptor; + 100 μM rapacuronium) was 0.031 ± 0.002* min^-1. The “koff2 of [^3H]NMS dissociation” value (M3 muscarinic receptor; + 100 μM rapacuronium) was 0.000967 ± 0.00015 s⁻¹, the “decrease in ACh EC50” value (M1 muscarinic receptor [2]; 0.1 μM rapacuronium) was 1.5 fold and the “decrease in ACh EC50” value (M1 muscarinic receptor [2]; 1 μM rapacuronium) was 4 fold. The “EMAX of ACh on [^35S]GTPγS binding” value (M1 muscarinic receptor [2]; + 0.1 μM rapacuronium) was 2.35 ± 0.12, the “EMAX of ACh on [^35S]GTPγS binding” value (M1 muscarinic receptor [2]; + 1 μM rapacuronium) was 2.28 ± 0.12 and the “EMAX of ACh on [^35S]GTPγS binding” value (M1 muscarinic receptor [2]; + 10 μM rapacuronium) was 2.27 ± 0.11. For the same compound, the “EMAX of rapacuronium on [^35S]GTPγS binding” value (M1 muscarinic receptor [2]; rapacuronium alone, normalized to absence of rapacuronium) was 0.76 ± 0.08, the EC50 (M1 muscarinic receptor [2]; rapacuronium alone, read-out: pEC50 of rapacuronium on [^35S]GTPγS binding (converted)) was 50.1 µM and the “BMAX of [^3H]NMS” value (M2 muscarinic receptor [3]; + 10 μM rapacuronium) was 1.62 ± 0.14 fmol/μg of protein. For the same compound, the “BMAX of [^3H]NMS” value (M2 muscarinic receptor [3]; + 100 μM rapacuronium) was 1.66 ± 0.14 fmol/μg of protein, the “BMAX of [^3H]ACh” value (M4 muscarinic receptor; + 10 μM rapacuronium) was 0.54 ± 0.05 fmol/μg of protein and the “BMAX of [^3H]ACh” value (M4 muscarinic receptor; + 100 μM rapacuronium) was 0.47 ± 0.04 fmol/μg of protein. For the same compound, the “BMAX of [^3H]ACh” value (M5 muscarinic receptor; + 10 μM rapacuronium) was 0.33 ± 0.03 fmol/μg of protein, the “BMAX of [^3H]ACh” value (M5 muscarinic receptor; + 100 μM rapacuronium) was 0.34 ± 0.06 fmol/μg of protein and the “decrease in affinity of [^3H]NMS (cooperativity)” value (M2 muscarinic receptor [4]; M2) was 6.8 fold. The “pα, cooperativity with [^3H]NMS” value (M2 muscarinic receptor [4]; [6]) was -0.83 ± 0.07, the Kd (M2 muscarinic receptor [4]; [7]) was 2.57 µM and the “pα, cooperativity with [^3H]ACh high affinity binding” value (M2 muscarinic receptor [5]; [6]) was -1.46 ± 0.08. For the same compound, the Kd (M2 muscarinic receptor [5]; [7]) was 2.82 µM.
